PMC11240139, “Exploring the antitumor potential of novel quinoline derivatives via tubulin polymerization inhibition in breast cancer; design, synthesis and molecular docking” (RSC Advances, 2024)

Tests used:
Assay in all cases: NCI-60 SRB cytotoxicity screen
Type in all cases: cell-based
CCRF-CEM (leukemia) = conditions: Homo sapiens, single dose 10 μM, read-out: growth inhibition (GI%)
HL-60(TB) (leukemia) = conditions: Homo sapiens, single dose 10 μM, read-out: growth inhibition (GI%)
K-562 (leukemia) = conditions: Homo sapiens; K-652 [sic], single dose 10 μM; read-out: growth inhibition (GI%)
MOLT-4 (leukemia) = conditions: Homo sapiens; MOLT-4, single dose 10 μM; read-out: growth inhibition (GI%)
RPMI-8226 (leukemia) = conditions: Homo sapiens; RPMI-8226, single dose 10 μM; read-out: growth inhibition (GI%)
[1] = test system: A549/ATCC (non-small cell lung cancer); conditions: Homo sapiens, single dose 10 μM, read-out: growth inhibition (GI%)
[2] = test system: EKVX (non-small cell lung cancer); conditions: Homo sapiens, single dose 10 μM, read-out: growth inhibition (GI%)
[3] = test system: HOP-62 (non-small cell lung cancer); conditions: Homo sapiens; HOP-62, single dose 10 μM; read-out: growth inhibition (GI%)
[4] = test system: NCI-H226 (non-small cell lung cancer); conditions: Homo sapiens; NCI-H226, single dose 10 μM; read-out: growth inhibition (GI%)
[5] = test system: NCI-H23 (non-small cell lung cancer); conditions: Homo sapiens; NCI-H23, single dose 10 μM; read-out: growth inhibition (GI%)
[6] = test system: NCI-H460 (non-small cell lung cancer); conditions: Homo sapiens; NCI-H460, single dose 10 μM; read-out: growth inhibition (GI%)
[7] = test system: NCI-H522 (non-small cell lung cancer); conditions: Homo sapiens; NCI-H522, single dose 10 μM; read-out: growth inhibition (GI%)
HCT-15 (colon cancer) = conditions: Homo sapiens; HCT-15, single dose 10 μM; read-out: growth inhibition (GI%)
HT29 (colon cancer) = conditions: Homo sapiens, HT-29; HT29, single dose 10 μM; read-out: growth inhibition (GI%)
KM12 (colon cancer) = conditions: Homo sapiens; KM12, single dose 10 μM; read-out: growth inhibition (GI%)
SF-295 (CNS cancer) = conditions: Homo sapiens; SF-295, single dose 10 μM; read-out: growth inhibition (GI%)
SF-539 (CNS cancer) = conditions: Homo sapiens; SF-539, single dose 10 μM; read-out: growth inhibition (GI%)
SNB-75 (CNS cancer) = conditions: Homo sapiens, SNB-75, SNB-75, single dose 10 μM; read-out: growth inhibition (GI%)
MALME-3M (melanoma) = conditions: Homo sapiens, single dose 10 μM, read-out: growth inhibition (GI%)
SK-MEL-28 (melanoma) = conditions: Homo sapiens; SK-MEL-28, single dose 10 μM; read-out: growth inhibition (GI%)
UACC-257 (melanoma) = conditions: Homo sapiens; UACC-257, single dose 10 μM; read-out: growth inhibition (GI%)
UACC-62 (melanoma) = conditions: Homo sapiens; UACC-62, single dose 10 μM; read-out: growth inhibition (GI%)
IGROV1 (ovarian cancer) = conditions: Homo sapiens, IGROV-1; IGROV1, single dose 10 μM; read-out: growth inhibition (GI%)
OVCAR-8 (ovarian cancer) = conditions: Homo sapiens; OVCAR-8, single dose 10 μM; read-out: growth inhibition (GI%)
[8] = test system: NCI/ADR-RES (ovarian cancer); conditions: Homo sapiens, single dose 10 μM, read-out: growth inhibition (GI%)
SK-OV-3 (ovarian cancer) = conditions: Homo sapiens; SK-OV-3, single dose 10 μM; read-out: growth inhibition (GI%)
786-0 (renal cancer) = conditions: Homo sapiens; 786-0, single dose 10 μM; read-out: growth inhibition (GI%)
A498 (renal cancer) = conditions: Homo sapiens; A498, single dose 10 μM; read-out: growth inhibition (GI%)
ACHN (renal cancer) = conditions: Homo sapiens, single dose 10 μM, read-out: growth inhibition (GI%)
UO-31 (renal cancer) = conditions: Homo sapiens; UO-31, single dose 10 μM; read-out: growth inhibition (GI%)
PC-3 (prostate cancer) = conditions: PC-3, single dose 10 μM; read-out: growth inhibition (GI%)
MCF7 (breast cancer) = conditions: Homo sapiens; MCF7, single dose 10 μM; read-out: growth inhibition (GI%)
[9] = test system: MDA-MB-231/ATCC (breast cancer); conditions: Homo sapiens, MDA-MB-231, read-out: growth inhibition (GI%);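 further: growth inhibition in percent at a single 10 µM dose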
HS 578T (breast cancer) = conditions: Homo sapiens, single dose 10 μM, read-out: growth inhibition (GI%)
BT-549 (breast cancer) = conditions: Homo sapiens; BT-549, single dose 10 μM; read-out: growth inhibition (GI%)
T-47D (breast cancer) = conditions: Homo sapiens, T47D, single dose 10 μM, read-out: growth inhibition (GI%)

## CCc1cccc2cc(C3C=C(c4ccc(Br)cc4)NC(=S)N3)c(Cl)nc12 (stereo not drawn) [Compound 6e, 6-(4-Bromophenyl)-4-(2-chloro-8-ethylquinolin-3-yl)-3,4-dihydropyrimidine-2(1H)-thione]
CCRF-CEM (leukemia)
  inhibition at 10 µM: < 10%
HL-60(TB) (leukemia)
  inhibition at 10 µM: < 10%
K-562 (leukemia)
  inhibition at 10 µM: < 10%
MOLT-4 (leukemia)
  inhibition at 10 µM: 26.2%
RPMI-8226 (leukemia)
  inhibition at 10 µM: 10.7%
[1]
  inhibition at 10 µM: < 10%
[2]
  inhibition at 10 µM: < 10%
[3]
  inhibition at 10 µM: < 10%
[4]
  inhibition at 10 µM: < 10%
[5]
  inhibition at 10 µM: < 10%
[6]
  inhibition at 10 µM: < 10%
[7]
  inhibition at 10 µM: < 10%
HCT-15 (colon cancer)
  inhibition at 10 µM: < 10%
HT29 (colon cancer)
  inhibition at 10 µM: 11.9%
KM12 (colon cancer)
  inhibition at 10 µM: < 10%
SF-295 (CNS cancer)
  inhibition at 10 µM: < 10%
SF-539 (CNS cancer)
  inhibition at 10 µM: < 10%
SNB-75 (CNS cancer)
  inhibition at 10 µM: < 10%
MALME-3M (melanoma)
  inhibition at 10 µM: < 10%
SK-MEL-28 (melanoma)
  inhibition at 10 µM: < 10%
UACC-257 (melanoma)
  inhibition at 10 µM: < 10%
UACC-62 (melanoma)
  inhibition at 10 µM: < 10%
IGROV1 (ovarian cancer)
  inhibition at 10 µM: < 10%
OVCAR-8 (ovarian cancer)
  inhibition at 10 µM: < 10%
[8]
  inhibition at 10 µM: < 10%
SK-OV-3 (ovarian cancer)
  inhibition at 10 µM: 10.7%
786-0 (renal cancer)
  inhibition at 10 µM: < 10%
A498 (renal cancer)
  inhibition at 10 µM: < 10%
ACHN (renal cancer)
  inhibition at 10 µM: < 10%
UO-31 (renal cancer)
  inhibition at 10 µM: 32.7%
PC-3 (prostate cancer)
  inhibition at 10 µM: < 10%
MCF7 (breast cancer)
  inhibition at 10 µM: 18.4%
[9]
  inhibition at 10 µM: < 10%
HS 578T (breast cancer)
  inhibition at 10 µM: < 10%
BT-549 (breast cancer)
  inhibition at 10 µM: < 10%
T-47D (breast cancer)
  inhibition at 10 µM: < 10%
